From patent US20260167615A1, “COMPOUNDS AND COMPOSITIONS AS GPR52 MODULATORS” (Neurocrine Biosciences, Inc., priority 2022, published 2026)
Like-named read-outs stand apart in the source and are kept apart here.

Molecular target: recombinant human GPR52 (Homo sapiens, UniProt Q9Y2T5)
Experiment: HTRF cAMP assay, GPR52 activity (Example A)
Type: cell-based
Settings: for Emax: maximum cAMP at 10 μM or 31.6 μM test compound, as percentage of Emax of control compound 4-(3-(3-fluoro-5-(trifluoromethyl)benzyl)-5-methyl-4,5-dihydro-1H-1,2,4-triazol-1-yl)-2-methylbenzamide
Method: Compounds of Formula I were assessed for their ability to modulate GPR52 activity. HTRF CAMP assays were performed using a commercially available assay kit (CAMP Gs HiRange HTRF®, CisBio). Controls and compounds were solubilized in DMSO and 62.5 nanoliters of the diluted compounds were transferred into 384-well NBS assay plates via acoustic or precision low-volume dispensing. Compounds were further diluted to 1× with the addition of 20,000 cells per well. Flp-In™—CHO cells that stably express recombinant human GPR52 were used in the assay.
Cells were harvested with cell stripper and resuspended in stimulation buffer. After thirty minutes incubation at room temperature, detection reagents were added to each well. Plates were then incubated for an additional 30 minutes at room temperature. CAMP produced by the cells during the first incubation period competes with d2-labeled CAMP for binding to an anti-cAMP monoclonal antibody labeled with europium cryptate. The measured signal was inversely proportional to the concentration of cAMP produced by the cells and this signal was quantified using a PHERAstar® multi-mode plate reader.
Dose-response curves were generated from the HTRF counts that have been transformed based on a CAMP referenced curve, and then normalized to the positive control. EC50 values were obtained using a nonlinear regression curve-fitting program. […] The Emax (Table 13) is the maximum amount of cAMP (nM) produced by incubation of the cells with 10 μM or 31.6 μM of a test compound. The compound is defined by the top plateau of the sigmoid curve fit. The curve is then normalized to a control compound, in this case 4-(3-(3-fluoro-5-(trifluoromethyl)benzyl)-5-methyl-4,5-dihydro-1H-1,2,4-triazol-1-yl)-2-methylbenzamide (Tokumaru, K., et al., “Design, synthesis, and pharmacological evaluation of 4-azolyl-benzamide derivatives as novel GPR52 agonists”, Bioorganic & Medicinal Chemistry, Volume 25, Issue 12, June 2017, pages 3098-3115), and expressed as a percentage of the Emax of that control compound.

[1] = average EC50 (n=1 to 15), Flp-In-CHO cells stably expressing recombinant human GPR52, cAMP HTRF, read-out: EC50 (N=)

Chain of recombinant human GPR52 (Q9Y2T5 whole entry): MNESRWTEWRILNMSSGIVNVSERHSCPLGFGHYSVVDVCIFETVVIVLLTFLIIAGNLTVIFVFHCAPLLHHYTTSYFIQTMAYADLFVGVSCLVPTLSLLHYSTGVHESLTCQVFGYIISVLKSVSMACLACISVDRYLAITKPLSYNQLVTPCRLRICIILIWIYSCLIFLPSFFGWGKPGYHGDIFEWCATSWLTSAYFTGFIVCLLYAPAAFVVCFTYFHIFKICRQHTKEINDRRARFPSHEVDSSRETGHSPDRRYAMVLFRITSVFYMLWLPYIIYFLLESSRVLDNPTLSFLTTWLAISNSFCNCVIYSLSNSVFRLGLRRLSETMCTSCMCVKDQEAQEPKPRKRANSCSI

EC50 [1] | Emax | EC50 (Flp-In-CHO cells expressing human GPR52, read-out: average EC50) | EC50 (comparison of position of the nitrogen in the pyridine ring relative to the oxygen linker, read-out: Activity EC50) | Structure (SMILES)
101 to 1000 nM | 111% | – | – | CCc1cc(-c2cc(Oc3cc(F)c4cnn(C)c4c3)cc(N)n2)ccc1C(N)=O [Example 20, 4-(6-amino-4-((4-fluoro-1-methyl-1H-indazol-6-yl)oxy)pyridin-2-yl)-2-ethylbenzamide]
101 to 1000 nM | 103% | – | – | Cc1cc(-c2cc(Oc3cnc4c(c3)c(F)nn4C)ccn2)ccc1C(N)=O [Example 126, 4-(4-((3-fluoro-1-methyl-1H-pyrazolo[3,4-b]pyridin-5-yl)oxy)pyridin-2-yl)-2-methylbenzamide]
101 to 1000 nM | 123% | – | – | Cc1cc(-c2cc(Oc3ccc4c(c3)CCC4=O)ccn2)ccc1C(N)=O [Example 84, 2-methyl-4-(4-((1-oxo-2,3-dihydro-1H-inden-5-yl)oxy)pyridin-2-yl)benzamide]
101 to 1000 nM | 106% | – | – | Cc1cc(-c2cc(Oc3ccc4c(c3)OCO4)ccn2)ccc1C(N)=O [Example 85, 4-(4-(benzo[d][1,3]dioxol-5-yloxy)pyridin-2-yl)-2-methylbenzamide]
101 to 1000 nM | 95% | – | – | Cc1cc(-c2cc(Oc3ccc4c(c3)OC(F)(F)O4)ccn2)ccc1C(N)=O [Example 89, 4-(4-((2,2-difluorobenzo[d][1,3]dioxol-5-yl)oxy)pyridin-2-yl)-2-methylbenzamide]
101 to 1000 nM | 99% | – | – | CCc1cc(-c2cc(Oc3cnc4cnn(C)c4c3)ccn2)ccc1C(N)=O [Example 27, 2-ethyl-4-(4-((1-methyl-1H-pyrazolo[4,3-b]pyridin-6-yl)oxy)pyridin-2-yl)benzamide]
101 to 1000 nM | 117% | – | – | CCc1cc(-c2cc(Oc3ccc4c(C)nn(C(F)(F)F)c4c3)ccn2)ccc1C(N)=O [Example 134, 2-ethyl-4-(4-((3-methyl-1-(trifluoromethyl)-1H-indazol-6-yl)oxy)pyridin-2-yl)benzamide]
101 to 1000 nM | 90% | – | – | CCc1cc(-c2cc(Oc3ccc4nccnc4c3)ccn2)ccc1C(N)=O [Example 125, 2-ethyl-4-(4-(quinoxalin-6-yloxy)pyridin-2-yl)benzamide]
101 to 1000 nM | 98% | – | – | CCc1cc(-c2cc(Oc3ccc4cnn(C)c4c3)ccn2)ccc1C(N)=O [Example 2, 2-ethyl-4-{4-[(1-methyl-1H-indazol-6-yl)oxy]pyridin-2-yl}benzamide]
101 to 1000 nM | 102% | – | – | CCc1cc(-c2cc(Oc3cnc4c(C)nn(C)c4c3)ccn2)ccc1C(=O)NC [Example 60, 4-(4-((1,3-dimethyl-1H-pyrazolo[4,3-b]pyridin-6-yl)oxy)pyridin-2-yl)-2-ethyl-N-methylbenzamide]
101 to 1000 nM | 68% | – | – | Cc1cc(-c2cc(Oc3ccc4ccoc4c3)ccn2)ccc1C(N)=O [Example 87, 4-(4-(benzofuran-6-yloxy)pyridin-2-yl)-2-methylbenzamide]
1000 to 2000 nM | 87% | – | – | Cc1nn(C)c2cc(Oc3ccnc(-c4ccc(C(N)=O)c(C(F)(F)F)c4)c3)cnc12 [Example 30, 4-(4-((1,3-dimethyl-1H-pyrazolo[4,3-b]pyridin-6-yl)oxy)pyridin-2-yl)-2-(trifluoromethyl)benzamide]
101 to 1000 nM | 120% | – | – | Cc1cc(-c2cc(Oc3cc(F)c4ncccc4c3)ccn2)ccc1C(N)=O [Example 98, 4-(4-((8-fluoroquinolin-6-yl)oxy)pyridin-2-yl)-2-methylbenzamide]
25 to 100 nM | 108% | – | – | CCc1cc(-c2cc(Oc3cnc4c(c3)c(C)nn4C)ccn2)ccc1C(N)=O [Example 55, 4-(4-((1,3-dimethyl-1H-pyrazolo[3,4-b]pyridin-5-yl)oxy)pyridin-2-yl)-2-ethylbenzamide]
101 to 1000 nM | 60% | – | – | Cc1cc(-c2cc(Oc3cnc4c(F)cccc4c3)ccn2)ccc1C(N)=O [Example 103, 4-(4-((8-fluoroquinolin-3-yl)oxy)pyridin-2-yl)-2-methylbenzamide]
101 to 1000 nM | 107% | – | – | Cc1cc(-c2cc(Oc3cnc4c(c3)c(C)nn4C)cc(N)n2)ccc1C(N)=O [Example 23, 4-(6-amino-4-((1,3-dimethyl-1H-pyrazolo[3,4-b]pyridin-5-yl)oxy)pyridin-2-yl)-2-methylbenzamide]
101 to 1000 nM | 94% | – | – | CCc1cc(-c2cc(Oc3cnc4c(c3)c(C)nn4C)cc3nccn23)ccc1C(N)=O [Example 78, 4-(7-((1,3-dimethyl-1H-pyrazolo[3,4-b]pyridin-5-yl)oxy)imidazo[1,2-a]pyridin-5-yl)-2-ethylbenzamide]
101 to 1000 nM | 81% | – | – | CCc1cc(-c2cc(Oc3ccc4c(C(F)(F)F)nn(C)c4c3)ccn2)ccc1C(=O)NC [Example 64, 2-ethyl-N-methyl-4-(4-((1-methyl-3-(trifluoromethyl)-1H-indazol-6-yl)oxy)pyridin-2-yl)benzamide]
101 to 1000 nM | 116% | – | – | Cc1cc(-c2cc(Oc3cnc4c(F)nn(C)c4c3)ccn2)ccc1C(N)=O [Example 127, 4-(4-((3-fluoro-1-methyl-1H-pyrazolo[4,3-b]pyridin-6-yl)oxy)pyridin-2-yl)-2-methylbenzamide]
101 to 1000 nM | 112% | – | – | Cc1cc(-c2cc(Oc3cc(Cl)c4ncccc4c3)ccn2)ccc1C(N)=O [Example 100, 4-(4-((8-chloroquinolin-6-yl)oxy)pyridin-2-yl)-2-methylbenzamide]
101 to 1000 nM | 107% | – | – | CCc1cc(-c2cc(Oc3cnc4c(C)nn(C)c4c3)cc(N)n2)ccc1C(N)=O [Example 16, 4-(6-amino-4-((1,3-dimethyl-1H-pyrazolo[4,3-b]pyridin-6-yl)oxy)pyridin-2-yl)-2-ethylbenzamide]
25 to 100 nM | 103% | 83 nM | – | Cc1cc(-c2cc(Oc3ccc4c(C)nn(C)c4c3)ccn2)ccc1C(N)=O [Example 25, 4-(4-((1,3-dimethyl-1H-indazol-6-yl)oxy)pyridin-2-yl)-2-methylbenzamide]
– | – | – | 89 nM | Cc1cc(-c2cc(Oc3ccc4c(c3)c(C)nn4C)ccn2)ccc1C(N)=O [drawing 5]
101 to 1000 nM | 78% | – | – | Cc1cnc(-c2ccc(C(N)=O)c(C)c2)cc1Oc1ccc2cnn(C)c2c1 [Example 50, 2-methyl-4-(5-methyl-4-((1-methyl-1H-indazol-6-yl)oxy)pyridin-2-yl)benzamide]
101 to 1000 nM | 75% | – | – | CCc1cc(-c2cc(Oc3cnc4c(c3)c(C(F)(F)F)nn4C)cc3nccn23)ccc1C(N)=O [Example 77, 2-ethyl-4-(7-((1-methyl-3-(trifluoromethyl)-1H-pyrazolo[3,4-b]pyridin-5-yl)oxy)imidazo[1,2-a]pyridin-5-yl)benzamide]
25 to 100 nM | 110% | – | – | CCc1cc(-c2cc(Oc3ccc4c(F)nn(C)c4c3)ccn2)ccc1C(N)=O [Example 132, 2-ethyl-4-(4-((3-fluoro-1-methyl-1H-indazol-6-yl)oxy)pyridin-2-yl)benzamide]
101 to 1000 nM | 87% | – | – | CCc1cc(-c2cccc(Oc3cnc4c(C)nn(C)c4c3)c2)ccc1C(=O)NC [Example 66, 3′-((1,3-dimethyl-1H-pyrazolo[4,3-b]pyridin-6-yl)oxy)-3-ethyl-N-methyl-[1,1′-biphenyl]-4-carboxamide]
101 to 1000 nM | 76% | – | – | CCc1cc(-c2cc(Oc3cnc4c(C)nn(C)c4c3)cc3nccn23)ccc1C(N)=O [Example 81, 4-(7-((1,3-dimethyl-1H-pyrazolo[4,3-b]pyridin-6-yl)oxy)imidazo[1,2-a]pyridin-5-yl)-2-ethylbenzamide]
